Values quoted from earlier work in patent US20050222211A1, “S(-)rabeprazole compositions and methods” (Sepracor Inc., priority 1998, published 2005).

Experiments:
[1] = humans; depending on dose
gastric acid secretion = details: humans
CYP 3A = details: compared with omeprazole
CYP 2C19 = CYP 2C19 (Homo sapiens, UniProt P33261); details: compared with omeprazole
CYP 1A1 mRNA = details: compared with pantoprazole

Chain of CYP 2C19 (P33261 whole entry, species assumed): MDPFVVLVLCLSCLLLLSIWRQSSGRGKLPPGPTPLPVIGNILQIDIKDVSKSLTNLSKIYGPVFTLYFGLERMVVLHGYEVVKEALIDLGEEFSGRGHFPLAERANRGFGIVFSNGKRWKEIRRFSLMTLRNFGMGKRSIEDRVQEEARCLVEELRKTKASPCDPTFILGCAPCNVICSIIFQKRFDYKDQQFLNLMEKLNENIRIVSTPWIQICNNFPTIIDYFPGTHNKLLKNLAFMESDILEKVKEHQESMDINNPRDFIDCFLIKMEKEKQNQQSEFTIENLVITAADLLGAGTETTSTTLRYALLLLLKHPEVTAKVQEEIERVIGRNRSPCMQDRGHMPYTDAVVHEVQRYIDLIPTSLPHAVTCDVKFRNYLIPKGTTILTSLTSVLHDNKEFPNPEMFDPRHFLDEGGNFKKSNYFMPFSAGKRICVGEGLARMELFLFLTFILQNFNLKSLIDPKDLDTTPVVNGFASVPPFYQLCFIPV

COCCCOc1ccnc(C[S+]([O-])c2nc3ccccc3[nH]2)c1C (racemic) [racemic rabeprazole]
serum half-life [1]: 0.833 to 1.5 h
duration of the acid inhibitory effect (gastric acid secretion): about 24 hours
effects on hepatic drug metabolizing enzyme systems such as CYP 3A (CYP 3A): comparable to omeprazole
inhibition of CYP 2C19 (CYP 2C19): less inhibitory of CYP 2C19 than is omeprazole
induction of CYP 1A1 mRNA (CYP 1A1 mRNA): more potent inducer of CYP 1A1 mRNA than is pantoprazole
